Test system: kynurenine production in HeLa cells
Experiment: Inhibition of kynurenine production in HeLa cells
Type: cell-based, human
Conditions: HeLa cells, human IFN-γ 50 ng/mL, 48 h, kynurenine read at 480 nm; read-out: IC50
Description: The effect of compounds described herein on the inhibition of kynurenine production in HeLa cells (derived from human cervical cancer) was determined. HeLa cells were seeded into a 96-well culture plate at a density of 5×10^3 per well in RPMI1640/phenol red free media (from GIBCO) with 2 mM L-glutamine and 10% fetal bovine serum (FBS, from GIBCO) and grown overnight in a 37° C. incubator with 5% CO2. Twenty-four hours later, human IFN-γ (from GIBCO) (final concentration 50 ng/mL) and test compound solutions (serially diluted to different wells) were added to each well with a final volume of 200 uL per well. Forty-eight hours after incubation with compounds, 140 uL supernatant was taken from each well and was transferred to a new 96-well plate. Ten microliters of 6.1 N trichloroacetic acid were added into each well, mixed and incubated at 50° C. for 30 minutes. The reaction mixture was then centrifuged for 10 minutes at 2500 rpm and 100 uL of the supernatant per well was transferred to another 96 well plate and mixed with 100 uL of 2% (w/v) p-dimethylaminobenzaldehyde in acetic acid. The yellow color derived from kynurenine was measured at 480 nm using a SPECTRAmax i3 reader. Each compound concentration was done in triplicates and compound IC50 value was calculated using nonlinear regression using Graphpad Prism 5.0.
The inhibitory activity of representative compounds described herein, compared with another IDO inhibitor, such as INCB-24360, Controls 1 and 2 are shown in Table 2.

IC50 | Structure (SMILES)
1.4 nM | CCC(C(=O)O)c1ccc(N(CC(C)C)C2CCCCC2)c(NC(=O)Nc2ccc(F)cc2F)c1 (single isomer, unassigned) [Compound 62A]
2.8 nM | CCC(C(=O)O)c1ccc(N(CC(C)C)CC(C)C)c(Nc2ccc(S(C)(=O)=O)cc2)c1 (single isomer, unassigned) [Compound 60B]
0.9 nM | CCC(C(=O)O)c1ccc(N(CC(C)C)C2CCOCC2)c(Nc2ccc3c(c2)OC(F)(F)O3)c1 (single isomer, unassigned) [Compound 71B]
0.8 nM | CCC(C(=O)O)c1ccc(N(CC(C)C)C2CCOCC2)c(NC(=O)Nc2ccc(F)cc2F)c1 (single isomer, unassigned) [Compound 65A]
0.2 nM | CCC(C(=O)O)c1ccc(N(CC(C)C)C2CCCCC2)c(NC(=O)Nc2cncnc2)c1 (single isomer, unassigned) [Compound 64B]
12.7 nM | CCC(C(=O)O)c1ccc(N(CC(C)C)CC(C)C)c(NC(=O)Nc2cc(C)no2)c1 (single isomer, unassigned) [Compound 59A]

Same assay, conditions: Homo sapiens, HeLa, 48 h

Structure (SMILES) | IC50
CC(C)CN(c1ccc(C2(C(=O)O)CCC2)cc1NC(=O)Nc1ccc(F)cc1F)C1CCN(C)CC1 [Compound 28] | > 316 nM
CCOc1ncc(Nc2cc(C3(C(=O)O)CCC3)cnc2N2C3CCC2CC(c2ccc(F)cc2)C3)cn1 (stereo not drawn) [Compound 127] | 22 nM

Same assay, conditions: Homo sapiens, HeLa, 48 h, HeLa cells, human IFN-γ 50 ng/mL, kynurenine read at 480 nm, read-out: IC50

Structure (SMILES) | IC50
Cc1ccc(NC(=O)Nc2cc(C3(C(=O)O)CCCC3)ccc2N(CCC(F)(F)F)Cc2ccc(OC(F)(F)F)cc2)cc1 [Compound 14] | 0.5 nM
CC(C)CN(CC(C)C)c1ccc(CC(=O)O)cc1NC(=O)Nc1ccc(F)cc1F [Compound 1, 2-[4-[bis(2-methylpropyl)amino]-3-[[(2,4-difluorophenyl)carbamoyl]amino]phenyl]acetic acid] | 130 nM
COCCN(c1ccc(SC(C)(C)C(=O)O)cc1NC(=O)Nc1ccc(F)cc1F)C1CCCCC1 [Compound 45] | 78 nM
CC(C)CN(c1ccc(C2(C(=O)O)CCCC2)cc1NC(=O)Nc1ccc(F)cc1F)C1CCC(F)(F)CC1 [Compound 12] | 0.5 nM
CC(C)CN(CC(C)C)c1ccc(C2(C(=O)O)CCCC2)cc1Nc1ccc(Cl)cc1 [Compound 51] | 2.3 nM
CC(C)CN(CC(C)C)c1ccc(C2(C(=O)O)CCCC2)cc1Nc1nc2ccccc2[nH]1 [Compound 47] | 5.6 nM
CCN(c1ccc(C2(C(=O)O)CCC2)cc1NC(=O)Nc1ccc(F)cc1F)C1CCOCC1 [Compound 24] | 2.2 nM
CC(C)CN(c1ccc(C2(C(=O)O)CCC2)cc1Nc1ccc(Cl)cc1)C1CCCCC1 [Compound 52] | 0.3 nM
CC(C)CN(CC(C)C)c1ccc(C2(C(=O)O)CCC2)cc1NC(=O)Nc1cncnc1 [Compound 18] | 6.6 nM
CC(C)CN(CC(C)C)c1ccc(SC(C)(C)C(=O)O)cc1NC(=O)Nc1ccc(F)cc1F [Compound 37] | 19.9 nM
CC(C)CN(c1ccc(OC(C)(C)C(=O)O)cc1NC(=O)Nc1ccc(F)cc1F)C1CCCCC1 [Compound 35] | 1.9 nM
CC(C)CN(c1ccc(C2(C(=O)O)CCCC2)cc1NC(=O)Nc1ccc(F)cc1F)C1CCCCC1 [Compound 11] | 0.9 nM
Cc1cc(NC(=O)Nc2cc(C3(C(=O)O)CCC3)ccc2N(CC(C)C)CC(C)C)on1 [Compound 17] | 0.8 nM
CC(C)CN(CC(C)C)c1ccc(SCC(=O)O)cc1NC(=O)Nc1ccc(F)cc1F [Compound 36] | 2.8 nM
O=C(Nc1ccc(F)cc1F)Nc1cc(C2(C(=O)O)CCCC2)ccc1N(CCC(F)(F)F)Cc1ccc(OC(F)(F)F)cc1 [Compound 13] | 0.6 nM
CC(C)CN(c1ccc(C2(C(=O)O)CCC2)cc1NC(=O)C(C)C)C1CCOCC1 [Compound 50] | > 316 nM
CC(C)CN(c1ccc(SC(C)(C)C(=O)O)cc1NC(=O)Nc1ccc(F)cc1F)C1CCCCC1 [Compound 41] | 6.4 nM
CC(C)CN(CC(C)C)c1ccc(C(C)(C)C(=O)O)cc1NC(=O)Nc1ccc(F)cc1F [Compound 4] | 14.9 nM
CC(C)CN(CC(C)C)c1ccc(C(C)C(=O)O)cc1NC(=O)Nc1ccc(F)cc1F (stereo not drawn) [Compound 2] | 9.1 nM
CC(C)CN(CC(C)C)c1ccc(C2(C(=O)O)CCOCC2)cc1NC(=O)Nc1ccc(F)cc1F [Compound 8, 4-[4-[bis(2-methylpropyl)amino]-3-[[(2,4-difluorophenyl)carbamoyl]amino]phenyl]oxane-4-carboxylic acid] | 47 nM
Cc1cc(NC(=O)Nc2cc(C3(C(=O)O)CCC3)ccc2N(CC(C)C)C2CCOCC2)on1 [Compound 27] | 5.7 nM
CC(C)CN(c1ccc(C2(C(=O)O)CCC2)cc1NC(=O)Nc1ccc(F)cc1F)C1CCCCC1 [Compound 21] | 0.6 nM
CC(C)CN(CC(C)C)c1ccc(C2(c3nnn[nH]3)CCCC2)cc1NC(=O)Nc1ccc(F)cc1F [Compound 10, 3-[2-[bis(2-methylpropyl)amino]-5-[1-(1H-1,2,3,4-tetrazol-5-yl)cyclopentyl]phenyl]-1-(2,4-difluorophenyl)urea] | 0.9 nM

Continued, values first:

IC50 | Structure (SMILES)
6.5 nM | CC(C)CN(c1ccc(C2(C(=O)O)CCC2)cc1Nc1cnn(C)c1)C1CCOCC1 [Compound 87]
29 nM | CC(C)CN(c1ccc(C2(C(=O)O)CCC2)cc1NCC1CC1)C1CCOCC1 [Compound 80]
1 nM | CCOc1ccc(Nc2cc(C3(C(=O)O)CCC3)ccc2N(CC(C)C)C2CCCCC2)cc1 [Compound 53]
3 nM | Cc1cc(NC(=O)Nc2cc([C@H]3C[C@H]3C(=O)O)ccc2N(CC(C)C)CC(C)C)on1 [Control 2, (1R,2S)-2-(4-(diisobutylamino)-3-(3-(3-methylisoxazol-5-yl)ureido)phenyl)cyclopropanecarboxylic acid, reference compound]
2.4 nM | CCOc1ncc(Nc2cc(C3(C(=O)O)CCC3)ccc2N(CC(C)C)CC(C)C)cn1 [Compound 97]
0.3 nM | CC(C)N(CC1CC1)c1ccc(C2(C(=O)O)CCC2)cc1Nc1ccc(C#N)cn1 [Compound 108]
1.9 nM | CC(C)CN(c1ccc(C2(C(=O)O)CCC2)cc1Nc1cncnc1)C1CCOCC1 [Compound 74]
0.2 nM | CC(C)CN(c1ccc(C2(C(=O)O)CCC2)cc1Nc1ccc(Cl)cn1)C1CCOCC1 [Compound 102]
1.8 nM | CC(C)CN(c1ccc(CC(=O)O)cc1Nc1ccc(Cl)cc1)C1CCOCC1 [Compound 104]
4.1 nM | CCOc1ncc(Nc2cc(C(C)(C)C(=O)O)ccc2N(CC(C)C)C2CCOCC2)cn1 [Compound 121]
1.1 nM | Cc1csc(Nc2cc(C3(C(=O)O)CCC3)ccc2N(CC(C)C)C2CCOCC2)n1 [Compound 76]
3.9 nM | CCC(C(=O)O)c1ccc(N(CC(C)C)C2CCOCC2)c(Nc2ccc(F)cc2F)c1 (stereo not drawn) [Compound 69]
0.2 nM | CC(C)CN(c1ccc(C2(C(=O)O)CCC2)cc1Nc1ccc(C#N)cc1)C1CCOCC1 [Compound 72]
0.6 nM | CC(C)CN(c1ccc(C2(C(=O)O)CCC2)cc1Nc1cncnc1)C1CCCCC1 [Compound 54]
3.9 nM | CC(C)CN(c1ccc(CC(=O)O)cc1Nc1ccc(C#N)cc1)C1CCCCC1 [Compound 99]
0.2 nM | CC(C)CN(c1ccc(C2(C(=O)O)CCC2)cc1Nc1ccc(C#N)cn1)C1CCCCC1 [Compound 94]
33 nM | CC(C)CN(c1ncc(C2(C(=O)O)CCC2)cc1NC(=O)Nc1ccc(F)cc1F)C1CCOCC1 [Compound 90]

— patent US11969425B2, “Inhibitor of indoleamine-2,3-dioxygenase (IDO)” (InventisBio LLC, priority 2016, dated 2024)
